This note sets out measurements from patent US20240150423A1, “GLP-1 ANALOGUE-MODIFIED DIMERS WITH DIFFERENT CONFIGURATIONS, PREPARATION METHOD THEREOF, AND APPLICATION THEREOF IN TREATMENT OF TYPE II DIABETES” (Nanjing Finepeptide Biopharmaceutical Co.,Ltd, priority 2019, published 2024).

In the experiment the test system is Normal Kunming (KM) mice. The experiment in a line: multiple OGTT (mOGTT): hypoglycemic duration after a single administration. It is filed as in vivo. Conditions: single injection at the same dose (1.126 nmol), subcutaneous. An excerpt:
• 1. Methods: Normal Kunming (KM) mice (purchased from Guangdong Animal Center) were used for oral glucose tolerance test (OGTT) to obtain the hypoglycemic activity and durability of drug. […] The blood glucose meter and blood glucose test paper were from Bayer […]. The average blood glucose of each group was used as an evaluation standard: When the average blood glucose of experimental group was higher than that of the NaCl control group for two times, the measurement stopped and the hypoglycemic period compared to the blank control group was the effective duration. • 2. Results • 2.1 single OGTTs: after a single administration, the mice were orally administered glucose once and measured the blood glucose from the tail blood at 0, 10, 20, 40, 60 and 120 min. […] The duration of each monomer group was about 1⁄2-1⁄4 of the duration of its corresponding dimer group. […] Therefore, the 2G3 peptide was selected for treating type II diabetes (T2D) in vivo and subsequent experiments.

Positions of bridges follow the written chain, without caps; N, C: chain ends. Non-standard residues stand in square brackets, D forms with d. Chains are numbered I, II in the order given. No end group written: not given here. bAib = not defined here; βAla = NCCC(=O)O

Take “2G2 series 8: disulfide-linked homodimer of monomer SEQ ID NO: 8 (HAEGTFTSDVCSYLEGQAAXEFIAWLVRGRG; not fully specified; disulfide-linked homodimer; Sequence is synthesized; (20)..(20) Xaa is Xaa is 26Lys[N-e-(N-a-Palmitoyl-g-glutamyl)]; (31)..(31) N-terminal)”: the “Hypoglycemic duration” value is reported as 7 days.

Take “2G2 series 9: disulfide-linked homodimer of monomer SEQ ID NO: 9 (HAEGTFTSDVCSYLEGQAAXEFIAWLVRGRG; disulfide-linked homodimer; Sequence is synthesized; (20)..(20) Xaa is 26Lys[N-e-(N-a-oleoyl-L-g-glutamyl)]; (31)..(1) C-terminal)”: the “Hypoglycemic duration” value was found to be 5 days.

Consider “2G2 series 16: disulfide-linked homodimer of monomer SEQ ID NO: 16 (chain 1 H[bAib]EGTFTSDVCSYLEGQAAKEFIAWLVR[bAib]R; chain 2 H[bAib]EGTFTSDVCSYLEGQAAKEFIAWLVR[bAib]R; disulfide I:11-II:11 (inferred); not fully specified; reading uncertain)”, for which the “Hypoglycemic duration” value is given as 4 days.

For “2G2 series 17: disulfide-linked homodimer of monomer SEQ ID NO: 17 (chain 1 H[bAib]EGTFTSDVCSYLEGQAAKEFIAWLVK[bAib]R-NH2; chain 2 H[bAib]EGTFTSDVCSYLEGQAAKEFIAWLVK[bAib]R-NH2; disulfide I:11-II:11 (inferred); not fully specified; reading uncertain; also: disulfide-linked homodimer)”, the “Hypoglycemic duration” value is listed as 4 days.

Take “2G2 series 19: disulfide-linked homodimer of monomer SEQ ID NO: 19 (chain 1 H[βAla]EGTFTSDVCSYLEGQAAKEFIAWLVR[βAla]R; chain 2 H[βAla]EGTFTSDVCSYLEGQAAKEFIAWLVR[βAla]R; disulfide I:11-II:11 (inferred); not fully specified (C-terminus))”: the “Hypoglycemic duration” value was 3 days.

For the substance “2G3 series 21: disulfide-linked homodimer of monomer SEQ ID NO: 21 (HAEGTFTSDVSCYLEGQAAXEFIAWLVRGRG; disulfide-linked homodimer; Sequence is synthesized; (20)..(20) Xaa is 26Lys[N-e-(N-a-oleoyl-L-g-glutamyl)]; (31)..(31) C-terminal)”, the “Hypoglycemic duration” value was 14 days.

Regarding “2G3 series 22: disulfide-linked homodimer of monomer SEQ ID NO: 22 (HAEGTFTSDVSCYLEGQAAXEFIAWLVRGRG; not fully specified; disulfide-linked homodimer; Sequence is synthesized; (20)..(20) Xaa is 26Lys[N-e-(N-a-palmitoyl-L-g-glutamyl)]; (31)..(31) N-terminal)”, the “Hypoglycemic duration” value was 16 days.

On to “2G3 series 23: disulfide-linked homodimer of monomer SEQ ID NO: 23 (HAEGTFTSDVSCYLEGQAAXEFIAWLVRGRG; disulfide-linked homodimer; Sequence is synthesized; (20)..(20) Xaa is 26Lys[N-e-(N-a-oleoyl-L-g-glutamyl)]; (31)..(31) N-terminal)”, for which the “Hypoglycemic duration” value is recorded as 17 days.

Turning to “2G4 series 25: disulfide-linked homodimer of monomer SEQ ID NO: 25 (HAEGTFTSDVCSYLEGQAAXEFIAWLVRGRG; not fully specified; disulfide-linked homodimer; Sequence is synthesized; (20)..(20) Xaa is 26Lys[N-e-(N-a-palmitoyl-L-g-glutamyl)]; (31)..(31) N-terminal)”, the “Hypoglycemic duration” value is 14 days.

As to “2G4 series 26: disulfide-linked homodimer of monomer SEQ ID NO: 26 (HAEGTFTSDVCSYLEGQAAXEFIAWLVRGRG; not fully specified; disulfide-linked homodimer; Sequence is synthesized; (20)..(20) Xaa is 26Lys[N-e-(N-a-oleoyl-L-g-glutamyl)]; (31)..(31) C-terminal)”, the “Hypoglycemic duration” value came to 12 days.

As for “2G4 series 27: disulfide-linked homodimer of monomer SEQ ID NO: 27 (HAEGTFTSDVCSYLEGQAAXEFIAWLVRGRG; not fully specified; disulfide-linked homodimer; Sequence is synthesized; (20)..(20) Xaa is 26Lys[N-e-(N-a-oleoyl-L-g-glutamyl)]; (31)..(31) N-terminal)”, the “Hypoglycemic duration” value is 15 days.

As to “2G4 series 30: disulfide-linked homodimer of monomer SEQ ID NO: 30 (HXEGTFTSDVCSYLEGQAAXEFIAWLVRGRG; not fully specified; disulfide-linked homodimer; Sequence is synthesized; (2)..(2) Xaa is bAib; (20)..(20) Xaa is 26Lys[N-e-(N-a-oleoyl-L-g-glutamyl)]; (31)..(31) N-terminal)”, the “Hypoglycemic duration” value is 16 days.

As to “2G4 series 31: disulfide-linked homodimer of monomer SEQ ID NO: 31 (HXEGTFTSDVCSYLEGQAAXEFIAWLVRGRG; not fully specified; disulfide-linked homodimer; Sequence is synthesized; (2)..(2) Xaa is bAla; (20)..(20) Xaa is 26Lys[N-e-(N-a-oleoyl-L-g-glutamyl)]; (31)..(31) N-terminal)”, the “Hypoglycemic duration” value came out at 15 days.

“2G4 series 32: disulfide-linked homodimer of monomer SEQ ID NO: 32 (HAEGTFTSDVSCYLEGQAAXEFIAWLVRGRG; not fully specified; disulfide-linked homodimer; Sequence is synthesized; (20)..(20) Xaa is 26Lys[N-e-(N-a-oleoyl-L-g-glutamyl)]; (31)..(31) C-terminal)”: the “Hypoglycemic duration” value is on record as 13 days.

As for “2G4 series 33: disulfide-linked homodimer of monomer SEQ ID NO: 33 (HAEGTFTSDVSCYLEGQAAXEFIAWLVRGRG; not fully specified; disulfide-linked homodimer; Sequence is synthesized; (20)..(20) Xaa is 26Lys[N-e-(N-a-oleoyl-L-g-glutamyl)]; (31)..(31) N-terminal)”, the “Hypoglycemic duration” value turned out to be 16 days.

Take “2G4 series 34: disulfide-linked homodimer of monomer SEQ ID NO: 34 (HAEGTFTSDVSCYLEGQAAXEFIAWLVRGRG; not fully specified; disulfide-linked homodimer; Sequence is synthesized; (20)..(20) Xaa is 26Lys[N-e-(N-a-palmitoyl-L-g-glutamyl)]; (31)..(31) C-terminal)”: the “Hypoglycemic duration” value was 13 days.

As to “2G4 series 35: disulfide-linked homodimer of monomer SEQ ID NO: 35 (HAEGTFTSDVSCYLEGQAAXEFIAWLVRGRG; not fully specified; disulfide-linked homodimer; Sequence is synthesized; (20)..(20) Xaa is 26Lys[N-e-(N-a-palmitoyl-L-g-glutamyl)]; (31)..(31) N-terminal)”, the “Hypoglycemic duration” value turned out to be 15 days.
